Where two headings read alike, the source gives them in different places.

What is called IC50 is the concentration needed to halve the response being measured.

The test system of one test is Male Wistar rats. The class given is in vivo. The conditions noted are these: rat.
For test [1], the target named is human recombinant butyrylcholinesterase (Homo sapiens (Human), UniProt P06276). Kind of test: biochemical. The class given is biochemical.
In test [2] the target is Human recombinant acetylcholinesterase (Homo sapiens (Human), UniProt P22303). Kind of test: biochemical.
Chain of Human recombinant acetylcholinesterase (P22303 32-614 limits assumed): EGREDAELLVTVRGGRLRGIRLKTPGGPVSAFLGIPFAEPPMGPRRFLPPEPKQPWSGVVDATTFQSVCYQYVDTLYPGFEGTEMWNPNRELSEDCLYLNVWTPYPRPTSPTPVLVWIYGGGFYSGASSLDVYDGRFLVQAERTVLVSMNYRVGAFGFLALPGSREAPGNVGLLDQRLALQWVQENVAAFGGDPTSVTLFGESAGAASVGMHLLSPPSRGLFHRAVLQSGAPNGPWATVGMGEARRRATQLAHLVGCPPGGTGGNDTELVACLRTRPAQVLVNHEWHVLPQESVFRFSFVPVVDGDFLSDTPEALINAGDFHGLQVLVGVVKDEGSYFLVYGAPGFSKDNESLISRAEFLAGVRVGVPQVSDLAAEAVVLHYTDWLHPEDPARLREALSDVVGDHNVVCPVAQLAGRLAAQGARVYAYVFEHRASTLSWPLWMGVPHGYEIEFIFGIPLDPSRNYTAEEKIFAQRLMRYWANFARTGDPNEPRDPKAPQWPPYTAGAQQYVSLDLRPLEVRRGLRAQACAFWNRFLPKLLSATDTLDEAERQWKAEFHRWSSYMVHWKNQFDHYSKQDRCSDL

Chain of human recombinant butyrylcholinesterase (P06276 29-602 limits assumed): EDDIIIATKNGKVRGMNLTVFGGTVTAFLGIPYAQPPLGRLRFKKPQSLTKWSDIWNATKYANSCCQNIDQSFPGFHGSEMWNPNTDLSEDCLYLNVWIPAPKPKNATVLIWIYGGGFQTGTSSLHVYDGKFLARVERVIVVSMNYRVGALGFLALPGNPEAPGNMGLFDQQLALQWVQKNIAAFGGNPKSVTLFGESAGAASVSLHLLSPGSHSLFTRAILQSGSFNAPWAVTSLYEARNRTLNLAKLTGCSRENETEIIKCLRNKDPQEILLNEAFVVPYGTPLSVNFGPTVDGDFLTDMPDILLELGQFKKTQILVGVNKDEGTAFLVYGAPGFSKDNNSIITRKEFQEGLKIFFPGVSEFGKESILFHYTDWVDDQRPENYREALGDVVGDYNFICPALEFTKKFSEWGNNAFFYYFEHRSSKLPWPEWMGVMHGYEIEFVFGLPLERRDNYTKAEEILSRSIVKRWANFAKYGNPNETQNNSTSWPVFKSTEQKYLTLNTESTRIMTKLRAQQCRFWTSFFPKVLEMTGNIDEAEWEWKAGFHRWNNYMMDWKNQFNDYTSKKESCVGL

Turning to `COc1cc2c(cc1OC)C(=O)C(CC1CCN(Cc3ccccc3)CC1)C2` (stereo not shown) [Donepezil, reference compound], the “Reverse (%) (percentage antagonism of scopolamine-induced latency deficit)” value in the test with Male Wistar rats (in vivo) is given as 52%.

As for `COc1cc(C(C)N(C)C)c2c(c1)oc(=O)c1ccccc12` (racemic) [FAR-01-1, (±)-1-(1-(dimethylamino)ethyl)-3-methoxy-6H-benzo[c]chromen-6-one], the IC50 in test [1] stood at 24.7 µM.

On to `CC(c1cc(O)cc2oc(=O)c3ccccc3c12)N(C)C` (racemic) [FAR-01-1OH, (±)-1-(1-(dimethylamino)ethyl)-3-hydroxy-6H-benzo[c]chromen-6-one], for which the IC50 in test [2] is 33.1 µM; in test [1], more than 40 µM.

For `COc1cc(C(C)N(C)C)cc2oc(=O)c3ccccc3c12` (racemic) [FAR-01-2, (±)-3-(1-(dimethylamino)ethyl)-1-methoxy-6H-benzo[c]chromen-6-one], the “Reverse (%) (percentage antagonism of scopolamine-induced latency deficit)” value in the test on Male Wistar rats (in vivo) came to 71%. Also, the IC50 in test [2] was found to be 2.8 µM; in test [1], 21.1 µM.

In the case of `CC(c1cc(O)c2c(c1)oc(=O)c1ccccc12)N(C)C` (racemic) [FAR-01-2OH, (±)-3-(1-(dimethylamino)ethyl)-1-hydroxy-6H-benzo[c]chromen-6-one], in the test on Male Wistar rats (in vivo), the “Reverse (%) (percentage antagonism of scopolamine-induced latency deficit)” value is on record as 49%. Besides, the IC50 was found to be 18.9 µM in test [2] and 4.2 µM in test [1]. Moreover, in test [1], the “BCHE inhibitory potential in comparison to the current drugs (galantamine, rivastigmine, donepezil)” value (“BCHE inhibitory potential in comparison” for short) is listed as “at least comparable and/or better inhibitory potential”.

Regarding `CCN(C)C(=O)Oc1cccc([C@H](C)N(C)C)c1` [Rivastigmine, reference compound], the “Reverse (%) (percentage antagonism of scopolamine-induced latency deficit)” value in the test with Male Wistar rats (in vivo) worked out at 85%.

Take `CCN(C)C(=O)Oc1cc(C(C)N(C)C)cc2oc(=O)c3ccccc3c12` (racemic) [FAR-01-2CA, (±)-3-(1-(dimethylamino)ethyl)-6-oxo-6H-benzo[c]chromen-1-yl ethyl(methyl)carbamate]: in the test with Male Wistar rats (compound 1 mg/kg oral, scopolamine 1 mg/kg i.p., latency measured for 5 minutes), the “Reverse (%) (percentage antagonism of scopolamine-induced latency deficit)” value came out at 53%. For the same compound, in test [1], the “BCHE inhibitory potential in comparison” value is reported as “at least comparable and/or better inhibitory potential” and the IC50 was determined as 12.7 µM.

Turning to `CC(c1ccc2c(c1)oc(=O)c1ccccc12)N(C)C` (racemic) [FAR-02-2RS, (±)-3-(1-(dimethylamino)ethyl)-6H-benzo[c]chromen-6-one], in the test with Male Wistar rats (in vivo), the “Reverse (%) (percentage antagonism of scopolamine-induced latency deficit)” value is given as 70%. The half-inhibitory concentration (IC50) is 10.9 µM in test [2] and 17.9 µM in test [1].

For `CCN(C)C(=O)Oc1cc(C(C)N(C)C)c2c(c1)oc(=O)c1ccccc12` (racemic) [FAR-01-1CA, (±)-1-(1-(dimethylamino)ethyl)-6-oxo-6H-benzo[c]chromen-3-yl ethyl(methyl)carbamate], in test [2], the IC50 was more than 40 µM. In test [1], the “BCHE inhibitory potential in comparison” value was “at least comparable and/or better inhibitory potential”; the half-inhibitory concentration (IC50) is 8.5 µM; the “selectivity BCHE versus ACHE” value is recorded as “possess selectivity to inhibit the BCHE”.

With `C[C@@H](c1ccc2c(c1)oc(=O)c1ccccc12)N(C)C` [FAR-02-2S, (S)-3-(1-(dimethylamino)ethyl)-6H-benzo[c]chromen-6-one], in the test on Male Wistar rats (in vivo), the “Reverse (%) (percentage antagonism of scopolamine-induced latency deficit)” value worked out at 71%. Besides, the IC50 in test [2] (read-out: ACHE Inhibitory Activity IC50) was 7.9 µM; in test [1] (read-out: BCHE Inhibitory Activity IC50), 16.2 µM.

The record behind these values is patent publication US9586925B2 (priority 2013, dated 2017).
